Results from patent EP4122499A1, “FIBROBLAST ACTIVATION PROTEIN INHIBITORS AND USE THEREOF” (3B Pharmaceuticals GmbH, priority 2021, dated 2023).

What was measured:
[1] = biological target: T1, FAP-expressing human WI-38 fibroblasts (Homo sapiens, UniProt Q12884); assay: Competitive FACS binding assay (displacement of Cy5-labeled FAP inhibitor 3BP-2935); conditions: 3 nM Cy5-labeled 3BP-2935, 4°C, 1 hour
T1 construct: FAP-expressing human WI-38 fibroblasts (ECACC 90020107) were cultured in EMEM; host or cells: WI-38 human fibroblasts
T1 sequence (Q12884 1-760): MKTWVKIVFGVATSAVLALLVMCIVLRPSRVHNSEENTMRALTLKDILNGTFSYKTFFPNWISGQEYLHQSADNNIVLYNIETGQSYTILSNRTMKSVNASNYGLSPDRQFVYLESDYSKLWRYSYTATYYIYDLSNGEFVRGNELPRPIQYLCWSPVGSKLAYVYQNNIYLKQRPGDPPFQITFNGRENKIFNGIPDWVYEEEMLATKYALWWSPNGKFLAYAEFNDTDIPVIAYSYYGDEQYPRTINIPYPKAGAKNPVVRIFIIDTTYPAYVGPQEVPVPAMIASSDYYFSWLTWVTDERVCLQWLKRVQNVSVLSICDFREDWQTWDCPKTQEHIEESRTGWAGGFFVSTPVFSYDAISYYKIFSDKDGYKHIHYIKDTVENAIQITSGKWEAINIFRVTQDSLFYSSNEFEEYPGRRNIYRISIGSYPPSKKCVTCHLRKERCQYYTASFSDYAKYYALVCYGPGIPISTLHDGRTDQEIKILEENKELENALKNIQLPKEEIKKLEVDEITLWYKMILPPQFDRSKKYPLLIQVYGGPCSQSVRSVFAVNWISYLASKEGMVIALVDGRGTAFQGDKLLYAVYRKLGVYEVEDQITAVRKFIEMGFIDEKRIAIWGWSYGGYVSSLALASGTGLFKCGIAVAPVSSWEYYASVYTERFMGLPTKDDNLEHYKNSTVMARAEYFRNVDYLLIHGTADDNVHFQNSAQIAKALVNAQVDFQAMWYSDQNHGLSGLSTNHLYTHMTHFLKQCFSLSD

Human recombinant FAP [2] = biological target: T2, Human recombinant FAP (Homo sapiens, UniProt Q12884); assay: FRET-based FAP protease activity assay (human); format: biochemical; set-up: purchased R&D systems 3715-SE; conditions: FRET-peptide substrate, 37°C; for IC50: read-out: pIC50 (Activity) (converted)
T2 sequence (Q12884 1-760): T1 sequence (Q12884 1-760)
Procedure: In order to determine the inhibitory activity a FRET-based FAP protease activity assay was established.
25 µL of a 30 µM substrate solution, diluted in assay buffer, was added. […] Four parameter logistic (4PL) curve fitting and pIC50 calculations were performed using ActivityBase software (IDBS).

Human recombinant FAP [3] = biological target: T2, Human recombinant FAP; assay: Surface plasmon resonance assay (Biacore T200, single cycle kinetics); format: binding; conditions: SPR, 25°C; for pKD (Biacore) / Kd: 1:1 Langmuir binding model; for HL [min] (Biacore): half-life; for Kd: read-out: pKD (Biacore) (converted)
Method in brief: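 Human recombinant FAP (20 µg/mL) was captured on anti-FAP antibody immobilized on a CM5 chip, and compounds were run in single-cycle kinetics at 25 °C in HBST with 0.1% DMSO, starting from 500 nM. Sensorgrams were corrected against a reference flow cell and for baseline drift. kon, koff, KD and t1/2 came from a 1:1 Langmuir fit, with pKD = −log KD.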

SMILES | pIC50 (FACS) [1] | pIC50 (Activity) (Human recombinant FAP [2]) | pKD (Biacore) (Human recombinant FAP [3]) | HL [min] (Biacore) (Human recombinant FAP [3]) | IC50 [1] [nM] | IC50 (Human recombinant FAP [2]) [nM] | Kd (Human recombinant FAP [3]) [nM]
O=C(O)CN1CCN(CC(=O)O)CCN(CC(=O)N2CCN(CCCOc3ccc4nccc(C(=O)NCC(=O)N5C[C@@H](F)C[C@H]5C(=O)c5nc6ccccc6o5)c4c3)CC2)CCN(CC(=O)O)CC1 [drawing 358] | 8.6 | 9 | >11 | >500 | – | – | –
N#C[C@@H]1CC(F)(F)CN1C(=O)CNC(=O)c1ccnc2ccc(-c3ccc(S(=O)(=O)CCCNC(=O)CN4CCN(CC(=O)O)CCN(CC(=O)O)CCN(CC(=O)O)CC4)cc3)cc12 | 9.2 | 9.1 | >11 | >500 | – | – | –
CS(=O)(=O)c1cccc(-c2ccc3nccc(C(=O)NCC(=O)N4CCC[C@H]4C#N)c3c2)c1 | – | – | – | 2.5 | 3.98 | 1 | 0.398
O=C(O)CN1CCN(CC(=O)O)CCN(CC(=O)N2CCN(CCNC(=O)c3ccc(-c4ccc5nccc(C(=O)NCC(=O)N6CCC[C@H]6C(=O)c6nc7ccccc7o6)c5c4)cn3)CC2)CCN(CC(=O)O)CC1 [drawing 361] | 7.6 | 8.4 | 8.7 | 4.1 | – | – | –
O=C(O)CN1CCN(CC(=O)O)CCN(CC(=O)NCCCNC(=O)c2ccc(-c3ccc4nccc(C(=O)NCC(=O)N5CCC[C@H]5C(=O)c5nc6ccccc6o5)c4c3)cc2)CCN(CC(=O)O)CC1 | 8.6 | 8.8 | 10.3 | 259.3 | – | – | –
O=C(NCC(=O)N1CCC[C@H]1C(=O)c1ncco1)c1ccnc2ccccc12 [drawing 297] | – | – | – | 0.6 | 12.6 | 6.31 | 2.51
O=C(O)CN1CCN(CC(=O)O)CCN(CC(=O)NCCCNC(=O)c2ccc(-c3ccc4nccc(C(=O)NCC(=O)N5CCC[C@H]5B(O)O)c4c3)cc2)CCN(CC(=O)O)CC1 | 8.9 | 8.8 | >11 | >500 | – | – | –
CS(=O)(=O)c1cccc(-c2ccc3nccc(C(=O)NCC(=O)N4CC(F)(F)C[C@H]4C#N)c3c2)c1 [drawing 288] | – | – | – | 29 | 1.58 | 0.631 | 0.0794
CS(=O)(=O)c1cccc(-c2ccc3c(C(=O)NCC(=O)N4CCC[C@H]4C#N)ccnc3c2)c1 | – | – | – | 5.7 | 6.31 | 2 | 0.501
CS(=O)(=O)c1ccc(-c2ccc3nccc(C(=O)NCC(=O)N4CC(F)(F)C[C@H]4C#N)c3c2)cc1 | – | – | – | 125 | 1 | 0.631 | 0.0251
N#C[C@@H]1CC(F)(F)CN1C(=O)CNC(=O)c1ccnc2ccc(-c3ccc(C(=O)NCCCNC(=O)CN4CCN(CC(=O)O)CCN(CC(=O)O)CCN(CC(=O)O)CC4)cc3)cc12 | 8.9 | 9.2 | >11 | 110 | – | – | –
O=C(NCC(=O)N1CCC[C@H]1C(=O)c1nc2ccccc2s1)c1ccnc2ccccc12 | – | – | – | 0.3 | 63.1 | 39.8 | 3.98
N#C[C@@H]1CC(F)(F)CN1C(=O)CNC(=O)c1ccnc2ccc(-c3ccc(C(=O)NCCN4CCN(C(=O)CN5CCN(CC(=O)O)CCN(CC(=O)O)CCN(CC(=O)O)CC5)CC4)cc3)cc12 | 8.7 | 9.1 | >11 | >500 | – | – | –
O=C(NCC(=O)N1CCC[C@H]1C(=O)c1nccs1)c1ccnc2ccccc12 | – | – | – | 0.3 | 100 | 50.1 | 12.6
